Test results reported in patent US20240307426A1, “USE OF SGLT-2 INHIBITORS FOR THE PREVENTION AND/OR TREATMENT OF RENAL DISEASES IN NON-HUMAN MAMMALS” (BOEHRINGER INGELHEIM VETMEDICA GMBH, priority 2021, published 2024).

System: cats with chronic kidney disease (CKD)
Experiment: Exploratory clinical field trial in cats with CKD (Example 3)
Format: in vivo, cat
Design: key to IRIS Stage (based on serum creatinine level) / IRIS Stage (based on creatinine level) / IRIS Stage (based on the creatinine level): IRIS CKD stage assigned from serum creatinine (IRIS 2019)
Conditions: for Phosphorus: ref 0.8-2.2; for Serum creatinine: ref 0.9-2.3; for Potassium: ref 3.3-5.8; for Hematocrit: ref 28.2-52.7; for UPC: ref <0.33
Procedure: The clinical trial was conducted at three animal clinics. Overall, 9 cats with chronic kidney disease (CKD) were included in the study and treated once daily orally with 1 mg/kg bodyweight velagliflozin for up to 150 days (depending on the time of enrollment).
Diagnosis of CKD was based on two measurements of serum creatinine concentration at least 2 weeks apart from each other (historical value and screening, and value at screening in fasted cats), as recommended by the International Renal Interest Society (IRIS 2019). In order to qualify for enrollment, serum creatinine levels needed to be ≥2.2 mg/dL, but <5.0 mg/dL.
Disease staging throughout the study was performed based on serum creatinine levels in accordance with the IRIS CKD staging (IRIS 2019).
All other cats were treated for >90 days had at least data for two time points under treatment available and were therefore evaluated. Progression of the disease, as well as IRIS staging in this study was based on the most reliable biomarker: serum creatinine.

[1] = case 200-006, Visit 2 (Day 90), 1 mg/kg po once daily
[2] = case 200-006, Visit 3 (Day 121), 1 mg/kg po once daily
[3] = case 200-006, screening visit (before treatment)
[4] = case 200-007, 1 mg/kg po once daily
[5] = case 200-007, 1 mg/kg po once daily, whole study
[6] = case 200-007, Visit 1 (Day 30), 1 mg/kg po once daily
[7] = case 200-007, Visit 2 (Day 90), 1 mg/kg po once daily
[8] = case 200-007, Visit 3 (Day 114), 1 mg/kg po once daily
[9] = case 200-007, screening visit (before treatment)
[10] = case 300-003 (IRIS stage 2), removed early on day 30
[11] = case 300-008, 1 mg/kg po once daily
[12] = case 300-008, 1 mg/kg po once daily, whole study
[13] = case 300-008, Visit 1 (Day 30), 1 mg/kg po once daily
[14] = case 300-008, Visit 2 (Day 90), 1 mg/kg po once daily
[15] = case 300-008, Visit 3 (Day 103), 1 mg/kg po once daily
[16] = case 300-008, screening visit (before treatment)
[17] = case 400-004, 1 mg/kg po once daily
[18] = case 400-004, 1 mg/kg po once daily, whole study
[19] = case 400-004, Visit 1 (Day 30), 1 mg/kg po once daily
[20] = case 400-004, Visit 2 (Day 90), 1 mg/kg po once daily
[21] = case 400-004, Visit 3 (Day 119), 1 mg/kg po once daily
[22] = case 400-004, screening visit (before treatment)

`N#Cc1ccc([C@@H]2O[C@H](CO)[C@@H](O)[C@H](O)[C@H]2O)cc1Cc1ccc(C2CC2)cc1` [velagliflozin, Velagliflozin] gave a Systolic blood pressure [1] of 155.3 mmHg, a Phosphorus [1] of 1.3 mmol/L and a Serum creatinine [1] of 2.7 mg/dL. The Potassium [1] was 4.4 mmol/L, the Hematocrit [1] was 37.3% and the UPC [1] was 0.2. The BUN [2] was 42 mg/dL, the “IRIS Stage (based on the creatinine level)” value [2] was 2 and the “Owner assessment - quality of life” value [2] was “good”. For the same compound, the “Owner assessment of the appetite” value [2] was “normal”, the “Owner assessment of the drinking behavior” value [2] was “excessive” and the Systolic blood pressure [2] was 140.0 mmHg. It also gave a Phosphorus [2] of 2.0 mmol/L, a Serum creatinine [2] of 2.8 mg/dL and a Potassium [2] of 4.3 mmol/L. For the same compound, the Hematocrit [2] was 35.5%, the BUN [3] was 34 mg/dL and the “IRIS Stage (based on the creatinine level)” value [3] was 2. For the same compound, the “Owner assessment - quality of life” value [3] was “good”, the “Owner assessment of the appetite” value [3] was “poor” and the “Owner assessment of the drinking behavior” value [3] was “excessive”. It also gave a Systolic blood pressure [3] of 141.3 mmHg, a Phosphorus [3] of 1.3 mmol/L and a Serum creatinine [3] of 2.6 mg/dL. It also gave a Potassium [3] of 3.8 mmol/L, a Hematocrit [3] of 37.9% and a UPC [3] of 0.1. The adverse events [4] was “three occasions of vomitus, two occasions of inappetence and one occasion of mild anaemia, leukocytopenia”, the expected glucosuric effect [4] was “confirmed” and the “Serum creatinine levels (course)” value [5] was “increased mildly”. The “Serum potassium levels (course)” value [5] was “remained stable within the reference range”, the “Total urine protein and UPC” value [5] was “mildly increased” and the “drinking behavior (course)” value [5] was “improved to normal”. For the same compound, the “quality of life (course)” value [5] was “changed from very good to good”, the “the cat's condition” value [5] was “stable” and the BUN [6] was 40 mg/dL. The “IRIS Stage (based on the creatinine level)” value [6] was 3, the “Owner assessment - quality of life” value [6] was “very good” and the “Owner assessment of the appetite” value [6] was “normal”. For the same compound, the “Owner assessment of the drinking behavior” value [6] was “normal”, the Systolic blood pressure [6] was 122.7 mmHg and the Phosphorus [6] was 1.0 mmol/L. For the same compound, the Serum creatinine [6] was 3.2 mg/dL, the Potassium [6] was 4.0 mmol/L and the Hematocrit [6] was 35.9%. The BUN [7] was 42 mg/dL, the “IRIS Stage (based on the creatinine level)” value [7] was 3 and the “Owner assessment - quality of life” value [7] was “good”. The “Owner assessment of the appetite” value [7] was “normal”, the “Owner assessment of the drinking behavior” value [7] was “normal” and the Systolic blood pressure [7] was 130.7 mmHg. The Phosphorus [7] was 1.3 mmol/L, the Serum creatinine [7] was 3.3 mg/dL and the Potassium [7] was 4.4 mmol/L. It also gave a Hematocrit [7] of 32.6%, a UPC [7] of 0.2 and a BUN [8] of 43 mg/dL. For the same compound, the “IRIS Stage (based on the creatinine level)” value [8] was 3, the “Owner assessment - quality of life” value [8] was “good” and the “Owner assessment of the appetite” value [8] was “normal”. The “Owner assessment of the drinking behavior” value [8] was “normal”, the Systolic blood pressure [8] was 130.7 mmHg and the Phosphorus [8] was 1.3 mmol/L. The Serum creatinine [8] was 3.2 mg/dL, the Potassium [8] was 3.9 mmol/L and the Hematocrit [8] was 28.9%. For the same compound, the BUN [9] was 41 mg/dL, the “IRIS Stage (based on the creatinine level)” value [9] was 3 and the “Owner assessment - quality of life” value [9] was “very good”. The “Owner assessment of the appetite” value [9] was “normal”, the “Owner assessment of the drinking behavior” value [9] was “excessive” and the Systolic blood pressure [9] was 139.3 mmHg. The Phosphorus [9] was 1.2 mmol/L, the Serum creatinine [9] was 2.9 mg/dL and the Potassium [9] was 4.4 mmol/L. For the same compound, the Hematocrit [9] was 37.6%, the UPC [9] was 0.1 and the evaluated clinical signs [10] was “no worsening of the evaluated clinical signs”. The laboratory parameters [10] was “stable laboratory parameters”, the reported events [10] was “Tooth pain, anorexia and feline odontoclastic-resorptive lesions (FORL) were reported” and the adverse events [11] was “No adverse event was reported”. For the same compound, the expected glucosuric effect [11] was “confirmed”, the “Drinking behavior according to owner's assessment (course)” value [12] was “improved from excessive to normal” and the “condition (clinical signs and biochemical parameters)” value [12] was “stabilization of the condition”. For the same compound, the “course of serum creatinine concentration” value [12] was “remained stable”, the “serum potassium and phosphate levels” value [12] was “remained in the reference range” and the “total urine protein and UPC ratio” value [12] was “remained within the reference range”. For the same compound, the BUN [13] was 65 mg/dL, the “IRIS Stage (based on creatinine level)” value [13] was 2 and the “Owner assessment - quality of life” value [13] was “good”. The “Owner assessment of the appetite” value [13] was “poor”, the “Owner assessment of the drinking behavior” value [13] was “normal” and the Systolic blood pressure [13] was 150.0 mmHg. The Phosphorus [13] was 1.4 mmol/L, the Serum creatinine [13] was 1.9 mg/dL and the Potassium [13] was 4.9 mmol/L. For the same compound, the Hematocrit [13] was 28.8%, the BUN [14] was 64 mg/dL and the “IRIS Stage (based on creatinine level)” value [14] was 2. The “Owner assessment - quality of life” value [14] was “good”, the “Owner assessment of the appetite” value [14] was “normal” and the Systolic blood pressure [14] was 150.0 mmHg. The Phosphorus [14] was 1.5 mmol/L, the Serum creatinine [14] was 2.4 mg/dL and the Potassium [14] was 4.4 mmol/L. For the same compound, the Hematocrit [14] was 32.4%, the UPC [14] was 0.2 and the BUN [15] was 54 mg/dL. For the same compound, the “IRIS Stage (based on creatinine level)” value [15] was 2, the “Owner assessment - quality of life” value [15] was “good” and the “Owner assessment of the appetite” value [15] was “normal”. For the same compound, the “Owner assessment of the drinking behavior” value [15] was “normal”, the Systolic blood pressure [15] was 148.7 mmHg and the Phosphorus [15] was 1.6 mmol/L. The Serum creatinine [15] was 2.6 mg/dL, the Potassium [15] was 4.4 mmol/L and the Hematocrit [15] was 28.2%. For the same compound, the UPC [15] was 0.3, the BUN [16] was 36 mg/dL and the “IRIS Stage (based on creatinine level)” value [16] was 2. The “Owner assessment - quality of life” value [16] was “good”, the “Owner assessment of the appetite” value [16] was “normal” and the “Owner assessment of the drinking behavior” value [16] was “excessive”. For the same compound, the Systolic blood pressure [16] was 148.0 mmHg, the Phosphorus [16] was 1.3 mmol/L and the Serum creatinine [16] was 2.4 mg/dL. For the same compound, the Potassium [16] was 4.9 mmol/L, the Hematocrit [16] was 26.7% and the UPC [16] was 0.2. For the same compound, the adverse events [17] was “One non-serious adverse event was reported (owner reported diarrhea)”, the expected glucosuric effect [17] was “confirmed” and the “Drinking behavior according to the owner (course)” value [18] was “improved from excessive to normal”. The “UPC ratio (course)” value [18] was “remained in the normal range”, the “condition (clinical signs and biochemical parameters)” value [18] was “improvement of the condition” and the “course of BUN concentration” value [18] was “decrease”. The “course of serum creatinine concentration” value [18] was “decrease”, the “serum potassium and phosphate levels” value [18] was “remained within the reference range” and the total urine protein [18] was “reduced”. The BUN [19] was 20.0 mg/dL, the “IRIS Stage (based on serum creatinine level)” value [19] was 3 and the “Owner assessment - quality of life” value [19] was “good”. The “Owner assessment of the appetite” value [19] was “normal”, the “Owner assessment of the drinking behavior” value [19] was “normal” and the Systolic blood pressure [19] was 142.7 mmHg. It also gave a Phosphorus [19] of 1.3 mmol/L, a Serum creatinine [19] of 4.0 mg/dL and a Potassium [19] of 3.9 mmol/L. The Hematocrit [19] was 41.0%, the BUN [20] was 19.3 mg/dL and the “IRIS Stage (based on serum creatinine level)” value [20] was 3. For the same compound, the “Owner assessment - quality of life” value [20] was “good”, the “Owner assessment of the appetite” value [20] was “poor” and the “Owner assessment of the drinking behavior” value [20] was “normal”. For the same compound, the Systolic blood pressure [20] was 157.3 mmHg, the Phosphorus [20] was 1.3 mmol/L and the Serum creatinine [20] was 3.2 mg/dL. The Potassium [20] was 3.8 mmol/L, the Hematocrit [20] was 45.0% and the UPC [20] was 0.1. For the same compound, the BUN [21] was 24.3 mg/dL, the “IRIS Stage (based on serum creatinine level)” value [21] was 3 and the “Owner assessment - quality of life” value [21] was “good”. The “Owner assessment of the appetite” value [21] was “normal”, the “Owner assessment of the drinking behavior” value [21] was “normal” and the Systolic blood pressure [21] was 149.3 mmHg. It also gave a Phosphorus [21] of 1.5 mmol/L, a Serum creatinine [21] of 2.9 mg/dL and a Potassium [21] of 4.0 mmol/L. The Hematocrit [21] was 45.0%, the BUN [22] was 20.2 mg/dL and the “IRIS Stage (based on serum creatinine level)” value [22] was 3. The “Owner assessment - quality of life” value [22] was “good”, the “Owner assessment of the appetite” value [22] was “normal” and the “Owner assessment of the drinking behavior” value [22] was “excessive”. The Systolic blood pressure [22] was 151.3 mmHg, the Phosphorus [22] was 1.4 mmol/L and the Serum creatinine [22] was 4.2 mg/dL. The Potassium [22] was 4.3 mmol/L, the Hematocrit [22] was 44.0% and the UPC [22] was 0.1. The “Clinical signs related to CKD” value (evaluated cats, 1 mg/kg po once daily) was “either remained good/stable or improved in the majority of cats”, the “risk factors for progression of the disease (e.g. UPC, blood pressure, potassium, phosphorus)” value (feline CKD patients, 1 mg/kg orally once daily) was “remained stable and within the reference range” and the IRIS staging (one of the 3 cats with decreased serum creatinine (stage 3->stage 2)) was “improved by one category”. For the same compound, the “complications of CKD” value (oral 1 mg/kg bodyweight once daily, evaluated cats) was “no complications of CKD observed” and the “laboratory parameters related to CKD (serum creatinine) and clinical signs” value (the other 4 of seven evaluated cats) was “stable condition”.
